Results from patent US6548544B1, “Method of treatment of priapism without raising systemic blood pressure” (The National University of Singapore, priority 1999, dated 2003).

Columns and labels:
[1] = system: Pharmacologically Induced Prolonged Erection (Pipe); assay: Effect on papaverine- and phenoxybenzamine-induced prolonged erection (PIPE), penile length, baboons; type: in vivo, baboon; conditions: for increase in penile length: intracavernous papaverine (40 mg) or phenoxybenzamine (3 mg), within 10 min after administration
Procedure: Six male baboons weighing between 8 kg and 12 kg were used for the experiment. The animals were sedated with ketamine and anaesthetised with intravenous pentobarbitone injected through an indwelling venous catheter. Drugs were injected into the right corpora cavornosa at the mid-third of the shaft using a 29G needle and 1 ml syringe. Blood pressure was monitored through a cannulated femoral artery connected to the transducer. A measuring tape was used to measure penile length visually from a marked point at the base of the penis to the tip of urethral orifice. Changes in penile length were recorded for a period of 100 min after injection.
Intracavernous injection of papaverine (40 mg) or phenoxybenzamine (3 mg) which produced maximal penile length within 20 and 40 min were repeated one week later and prostaglandin A2 was given at the peak time of the turgidity.
In baboons, intracavernous injection of papaverine (40 mg) or phenoxybenzamine (3 mg) produced a 130% increase in penile length within […] after administration (Table 1). This increase in penile length lasted for more than 100 min. This was repeated one week later and when prostaglandin A2 was injected intracavernosally at the maximum rigidity 20 min after the drug administration, the latter produced a marked reduction in penile length and within 40 min of injection, the penile size reduced to the original state of rugosity (Table 1). The fall in systemic blood pressure produced by prostaglandin A2 ranged from 8 to 16 mmHg. Each value reported in Table 1 represents the mean of six experiments.

cavernosum = assay: Other prostaglandins tested using the above protocol (contraction of the cavernosum); type: in vivo; conditions: testing using the above protocol "will demonstrate"

## CC(COc1ccccc1)N(CCCl)Cc1ccccc1 (centres unmarked) [Phenoxybenzamine, phenoxybenzamine]
[1]
  increase in penile length: 130%
[1]; phenoxybenzamine 3 mg intracavernous alone, 1 min after injection
  Mean Change in Penile Length (% of Control): 10%
[1]; phenoxybenzamine 3 mg intracavernous alone, 2 min after injection
  Mean Change in Penile Length (% of Control): 15%
[1]; phenoxybenzamine 3 mg intracavernous alone, 5 min after injection
  Mean Change in Penile Length (% of Control): 15%
[1]; phenoxybenzamine 3 mg intracavernous alone, 10 min after injection
  Mean Change in Penile Length (% of Control): 48%
[1]; phenoxybenzamine 3 mg intracavernous alone, 20 min after injection
  Mean Change in Penile Length (% of Control): 80%
[1]; phenoxybenzamine 3 mg intracavernous alone, 40 min after injection
  Mean Change in Penile Length (% of Control): 120%
[1]; phenoxybenzamine 3 mg intracavernous alone, 60 min after injection
  Mean Change in Penile Length (% of Control): 120%
[1]; phenoxybenzamine 3 mg intracavernous alone, 80 min after injection
  Mean Change in Penile Length (% of Control): 120%
[1]; phenoxybenzamine 3 mg intracavernous alone, 100 min after injection
  Mean Change in Penile Length (% of Control): 120%

## CCCCC[C@H](O)/C=C/C1=C(CCCCCCC(=O)O)C(=O)CC1 [prostaglandin B1]
cavernosum
  contraction of the cavernosum: effective in inducing, promoting, or otherwise facilitating contraction of the cavernosum but are not as active as prostaglandin A2

## COc1ccc(Cc2nccc3cc(OC)c(OC)cc23)cc1OC [Papaverine, papaverine]
[1]
  increase in penile length: 130%
[1]; papaverine 40 mg intracavernous alone, 1 min after injection
  Mean Change in Penile Length (% of Control): 30%
[1]; papaverine 40 mg intracavernous alone, 2 min after injection
  Mean Change in Penile Length (% of Control): 40%
[1]; papaverine 40 mg intracavernous alone, 5 min after injection
  Mean Change in Penile Length (% of Control): 52%
[1]; papaverine 40 mg intracavernous alone, 10 min after injection
  Mean Change in Penile Length (% of Control): 130%
[1]; papaverine 40 mg intracavernous alone, 20 min after injection
  Mean Change in Penile Length (% of Control): 130%
[1]; papaverine 40 mg intracavernous alone, 40 min after injection
  Mean Change in Penile Length (% of Control): 130%
[1]; papaverine 40 mg intracavernous alone, 60 min after injection
  Mean Change in Penile Length (% of Control): 130%
[1]; papaverine 40 mg intracavernous alone, 80 min after injection
  Mean Change in Penile Length (% of Control): 130%
[1]; papaverine 40 mg intracavernous alone, 100 min after injection
  Mean Change in Penile Length (% of Control): 130%

## CCCCC[C@H](O)/C=C/C1=C(C/C=C\CCCC(=O)O)C(=O)CC1 [prostaglandin B2]
cavernosum
  contraction of the cavernosum: effective in inducing, promoting, or otherwise facilitating contraction of the cavernosum but are not as active as prostaglandin A2

## CCCCC[C@H](O)/C=C/[C@H]1C=CC(=O)[C@@H]1CCCCCCC(=O)O [prostaglandin A1]
cavernosum
  contraction of the cavernosum: effective in inducing, promoting, or otherwise facilitating contraction of the cavernosum but are not as active as prostaglandin A2
